In general, IC50 refers to the concentration that gives 50% inhibition. Usually inhibition stands for the percentage by which the read-out fell short of the control.

Read-outs that look alike come from different tables or passages of the source. Bounds are passed on as bounds.

From PMC10965189, “Phytochemical investigation on the aerial parts of Veratrum versicolor f. viride Nakai and their biological activities” (Turkish Journal of Chemistry, 2023) come the findings set out here.

The target of one experiment is mushroom tyrosinase. In words: Tyrosinase inhibition assay. It is filed as biochemical. To be noted: L-tyrosine, 37 °C 20 min, three experiments, read-out: Tyrosinase inhibitory activity IC50. On the procedure:
The reaction was carried out in a 0.1 M potassium phosphate buffer (pH 6.5) containing 1.5 mM L-tyrosine and 1250 unit/mL mushroom tyrosinase and the reaction mixture was incubated at 37 °C for 20 min. The test samples were assayed for tyrosinase inhibition by measuring its effect on tyrosinase activity using an ELISA reader at 490 nm. Arbutin was used as a positive control. The inhibitory activity of the sample was expressed as the concentration that inhibits 50% of the enzyme activity (IC50).

Experiment [1] has as its system B16F10 mouse melanoma cells. In words: Measurement of relative melanin contents in α-MSH-stimulated cells. It is filed as cell-based.
In experiment [2] the target is T1, PPE (porcine pancreas elastase) (Sus scrofa, UniProt P00772).
T1 construct: from tissue; host or cells: porcine pancreas
In words: Elastase inhibition assay. It is filed as biochemical. On the procedure:
The reaction was carried out in a 50 mM Tris-HCl buffer (pH 8.5) containing 1 mg/mL N-succinyl-(Ala)3-p-nitroanilide and 0.6 U/mL PPE (porcine pancreas elastase). The test sample was added to the reaction mixture, and elastase inhibition was incubated at 25 °C for 10 min. The change in absorbance was measured at 405 nm using an ELISA reader. Ursolic acid was used as a positive control. The inhibitory activity of the sample was expressed as the concentration that inhibits 50% of the enzyme activity (IC50).

The test system of experiment [3] is B16F10 mouse melanoma cells. Description: Measurement of relative melanin contents in α-MSH-stimulated cells. The format is cell-based. To be noted: for activity at 25 µM / activity at 50 µM / activity at 100 µM / inhibition at 100 µM: Mus musculus, B16-F10; for activity at 25 µM / activity at 50 µM / activity at 100 µM: 100 nM α-MSH, 72 h; for activity at 100 µM / effect on melanin content compared to arbutin: 100 μM; for effect on melanin content compared to arbutin: arbutin 400 μM. The protocol: B16F10 mouse melanoma cells were cultured in DMEM medium containing 10% FBS and 1% penicillin-streptomycin in a 37 °C incubator with 5% CO2. The cells were seeded in 100-mm tissue culture dishes to be used for subsequent experiments.
B16F10 cells (1 × 10^5/well) were seeded in 6 well plates for 24 h. The cells were then incubated in the presence of 100 nM α-MSH, and treated with various concentrations (25, 50, and 100 μM) of sample for 72 h. After being washed twice with PBS, the cells were dissolved of 1 N NaOH and 10% DMSO, incubated at 60 °C for 1 h, and mixed to solubilize the melanin. Relative melanin content was determined with an ELISA reader by absorbance at 405 nm.

The mark [4] stands for this setting: porcine pancreas elastase, N-succinyl-(Ala)3-p-nitroanilide, 25 °C 10 min, three experiments, read-out: Elastase inhibitory activity IC50.
[5] abbreviates: at a concentration of 100 μM, read-out: inhibition of melanogenesis.
Setting [6] is: in the range of 50 ~ 100 μM, α-MSH-stimulated, read-out: inhibition percentage of melanin production.

T1 sequence (P00772 27-266): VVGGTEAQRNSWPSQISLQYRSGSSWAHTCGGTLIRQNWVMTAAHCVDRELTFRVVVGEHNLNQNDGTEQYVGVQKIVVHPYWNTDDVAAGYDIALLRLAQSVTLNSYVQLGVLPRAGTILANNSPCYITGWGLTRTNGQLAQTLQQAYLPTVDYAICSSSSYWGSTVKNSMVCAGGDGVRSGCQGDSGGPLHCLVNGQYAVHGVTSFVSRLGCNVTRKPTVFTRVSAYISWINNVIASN

Consider `OC[C@H]1O[C@@H](Oc2ccc(O)cc2)[C@H](O)[C@@H](O)[C@@H]1O` [Arbutin], for which, at mushroom tyrosinase, the IC50 was determined as 474 ± 18.2 µM. Moreover, the activity at 400 µM in experiment [1] (B16-F10, 100 nM α-MSH, 72 h) stood at 30.7 ± 3.34%. In addition, the inhibition at 400 µM in experiment [1] (B16-F10, α-MSH-stimulated, read-out: inhibition rate of melanin production) came to 69.2%.
Take `COc1cc(C(=O)O)ccc1O` [Compound 1, Vanillic acid]: in experiment [2] (setting [4]), the IC50 is over 1000 µM. In addition, in experiment [3], the activity at 25 µM was found to be 91.3 ± 4.81%, the activity at 50 µM worked out at 74.78 ± 0.69% and the activity at 100 µM is 64 ± 1.45%.
Regarding `OC[C@H]1O[C@@H](Oc2cc(O)cc(/C=C/c3ccc(O)cc3)c2)[C@H](O)[C@@H](O)[C@@H]1O` [Compound 2, trans-Piceid], the IC50 at mushroom tyrosinase was found to be 51.2 ± 5.5 µM. Besides, the IC50 in experiment [2] (setting [4]) is over 1000 µM. In addition, in experiment [3], the activity at 25 µM turned out to be 136 ± 3.36%, the activity at 50 µM was determined as 132 ± 6.52% and the activity at 100 µM stood at 116 ± 6.39%.
Turning to `Oc1cc(O)cc(/C=C/c2ccc(O)cc2O)c1` [Compound 3, Oxyresveratrol], the IC50 on mushroom tyrosinase came to 6.42 ± 0.45 µM. Moreover, in experiment [2], the IC50 is over 1000 µM. In addition, in experiment [3], the activity at 25 µM came out at 118 ± 3.73%, the activity at 50 µM is 109 ± 1.96% and the activity at 100 µM stood at 29.6 ± 2.21%. Further, the inhibition at 100 µM in experiment [3] (setting [5]) lay in the range of 70.4 to 91%.
For `Oc1ccc(/C=C/c2cc(O)cc(O)c2)cc1` [Compound 4, Resveratrol], the IC50 on mushroom tyrosinase worked out at 19.8 ± 0.77 µM. The IC50 in experiment [2] (setting [4]) was over 1000 µM. In experiment [3] (α-MSH-stimulated), the “effect on melanin content compared to arbutin” value (from here on “effect … compared to arbutin”) is on record as “greatly decreased”. Besides, in experiment [3], the activity at 25 µM is 82.3 ± 1.18%, the activity at 50 µM came out at 27.3 ± 5.83% and the activity at 100 µM was 17.3 ± 0.01%. The inhibition at 100 µM in experiment [3] (setting [5]) was in the range of 70.4 to 91%. Besides, in experiment [3] (setting [6]), the inhibition at 100 µM fell in the range of 72.7 to 82.7%.
Turning to `O=c1cc(-c2ccc(O)c(O)c2)oc2cc(O)cc(O)c12` [Compound 5, Luteolin], on mushroom tyrosinase, the IC50 was 37.9 ± 1.04 µM. Besides, the IC50 in experiment [2] (setting [4]) came out at 292 ± 14.4 µM. Further, in experiment [3] (α-MSH-stimulated), the “effect … compared to arbutin” value was “greatly decreased”. In addition, in experiment [3], the activity at 25 µM is 18 ± 0.76%, the activity at 50 µM is 16.4 ± 1.65% and the activity at 100 µM worked out at 8.99 ± 0.73%. In addition, in experiment [3] (setting [5]), the inhibition at 100 µM was 70.4 to 91%. For the same compound, the inhibition at 100 µM in experiment [3] (setting [6]) is 83.5 to 91%.
Consider `O=c1cc(-c2ccc(O)cc2)oc2cc(O)cc(O)c12` [Compound 6, Apigenin], for which the half-maximal inhibitory concentration (IC50) on mushroom tyrosinase is over 100 µM. Further, in experiment [2] (setting [4]), the 50% inhibitory concentration (IC50) is over 1000 µM. Also, in experiment [3], the activity at 25 µM amounted to 83.6 ± 3.01%, the activity at 50 µM amounted to 63.2 ± 2.11% and the activity at 100 µM was 16.2 ± 1.52%. For the same compound, the inhibition at 100 µM in experiment [3] (setting [5]) is 70.4 to 91%.
With `COc1cc(-c2cc(=O)c3c(O)cc(O)cc3o2)cc(OC)c1O` [Compound 7, Tricin], on mushroom tyrosinase, the IC50 was over 100 µM. Also, in experiment [2] (setting [4]), the IC50 is over 1000 µM. Moreover, in experiment [3], the activity at 25 µM is 65.2 ± 1.18%, the activity at 50 µM stood at 65.4 ± 1.41% and the activity at 100 µM turned out to be 56.4 ± 0.89%.
In the case of `COc1cc(-c2cc(=O)c3c(O)cc(O)cc3o2)ccc1O` [Compound 8, Chrysoeriol], the “effect … compared to arbutin” value in experiment [3] (α-MSH-stimulated) is “greatly decreased”. Besides, in experiment [3], the activity at 25 µM worked out at 37 ± 4.57%, the activity at 50 µM is 27.3 ± 0.8% and the activity at 100 µM was 23.4 ± 2.19%. For the same compound, the inhibition at 100 µM in experiment [3] (setting [5]) was in the range of 70.4 to 91%. In addition, in experiment [3] (setting [6]), the inhibition at 100 µM lay within 72.6 to 76.6%.
Consider `C[C@H]1[C@H](C)CC[C@]2(C(=O)O)CC[C@]3(C)C(=CC[C@@H]4[C@@]5(C)CC[C@H](O)C(C)(C)[C@@H]5CC[C@]43C)[C@H]12` [Ursolic acid, reference compound], for which the IC50 in experiment [2] (setting [4]) stood at 96.9 ± 1.33 µM.
